Results on five molecules are retold here after patent US4308278A, “Anorexigenic 4-[(3,4-dialkoxyphenyl)alkyl]-2-imidazolidinone derivatives” (Gyogyszerkutato Intezet, priority 1978, dated 1981).

One data set has as its system rats. As to conditions: oral, literature value (footnotes 2, 3); cited from earlier work.
The subject of the next data set is mice. As to conditions: oral, literature value (footnotes 1, 2, 5); cited from earlier work.
The next data set can be described thus: acute toxicity in mice. As to conditions: mouse, in vivo.
For data set [1], the system named is CFY rats. Kind of data set: anorexigenic effect in starved CFY rats (feed consumption / body weight). The class given is in vivo, rat. The settings on record: for ED50: Rattus norvegicus, rats, starved 24 h, dose halving food consumption or body weight gain vs control, read-out: ED50 orally in rats; for ED50 / Therapeutic ratio: oral; for Therapeutic ratio: LD50 and ED50 in rats. As for the experimental part:
For studying the anorexigenic effect the following method was used. CFY rats were starved for 24 hours, then the substance was orally administered, and half an hour later the animals were allowed to feed ad libitum during 5 hours when the feed consumption was measured. The change in the body weight of animals and the amount of the consumed solid, granulated food or sugar milk or peeled potato, respectively, were determined.
*ED50 is the oral dose after administration of which, following a
period of 24 hours of starvation, the rats consume the half amount of foo
as compared to control, or the oral dose after the administration of whic
the body weight gain is a half of that of control.

The nature of data set [2]: acute oral toxicity in rats. As to conditions: rat, in vivo.
The subject of data set [3] is CFY rats. The settings on record: oral, literature value (footnotes 4, 5); cited from earlier work.

The structures appear in SMILES notation. Counter-ions that a name gives are not always drawn.

On to `CCNC(C)Cc1cccc(C(F)(F)F)c1` (racemic) [Fenfluramine, DL-N-ethyl-α-methyl-3-trifluoromethylbenzeneethanamine hydrochloride], for which the “Acute LD50 orally in rats” value in the data set on rats is listed as 138 mg/kg. Moreover, the “Acute LD50 orally in mice” value with mice is 170 to 290 mg/kg. This molecule yielded a median lethal dose (LD50) in “acute toxicity in mice” (ip) of 100 mg/kg. Besides, in the data set on CFY rats [1], the ED50 is 7.5 mg/kg and the Therapeutic ratio is on record as 20.3.
For the molecule `CC(C)(N)Cc1ccc(Cl)cc1.Cl` [Chlorphentermine, α,α-dimethyl-4-chlorobenzeneethanamine hydrochloride], the “Acute LD50 orally in mice” value with mice is 250 mg/kg. In addition, the Therapeutic ratio in the data set with CFY rats [1] came to 30.0. Moreover, in data set [2], the LD50 worked out at 375 mg/kg. In addition, in the data set with CFY rats [3], the “ED50 orally in rats” value was 12.5 mg/kg.
On to `CC(N)Cc1ccccc1` [D-Amphetamine, D-benzeneethanamine sulphate], for which the “Acute LD50 orally in rats” value with rats is listed as 38 mg/kg. The “Acute LD50 orally in mice” value in the data set with mice is recorded as 60 mg/kg. Besides, in the data set on CFY rats [1], the ED50 was determined as 5 mg/kg and the Therapeutic ratio is 7.6.
For the molecule `COc1ccc(CC2CNC(=O)N2)cc1OC1CCCC1` (stereo not drawn) [Ia, 4-[(3-cyclopentyloxy-4-methoxyphenyl)methyl]-2-imidazolidinone], the LD50 in the data set “acute toxicity in mice” (ip) is 680 mg/kg; in the data set “acute toxicity in mice” (po), 2050 mg/kg; in data set [2] it was 760 mg/kg. The ED50 in the data set with CFY rats [1] was 10.5 mg/kg. Also, in the data set on CFY rats [1] (compared with anorexigenic drugs introduced so far), the “therapeutic ratio (comparison in words)” value was “more favourable than that of the best anorexigenic drugs introduced so far”. In the data set with CFY rats [1] (in words), the anorexigenic effect result is “much more intense than that of the anorexigenic drugs introduced so far”. The Therapeutic ratio in the data set with CFY rats [1] worked out at 72.5.
With `OC1(c2ccc(Cl)cc2)c2ccccc2C2=NCCN21` (stereo not drawn) [Mazindol, 5-(4-chlorophenyl)-2,5-dihydro-3H-imidazo[2,1-a]isoindol-5-ol], the median lethal dose (LD50) in the data set “acute toxicity in mice” (po) was found to be 106 mg/kg; in data set [2], 250 mg/kg. Further, the Therapeutic ratio in the data set on CFY rats [1] is 9.7. In the data set on CFY rats [3], the “ED50 orally in rats” value was 25.8 mg/kg.

As usually defined, the LD50 is the dose at which mortality reaches 50%. Lower therefore signals a more toxic substance.
